Measured values taken from US10053485B2, “Cytotoxic agents that preferentially target leukemia inhibitory factor (LIF) for the treatment of malignancies and as new contraceptive agents” (Evestra, Inc., priority 2015, dated 2018).
Read-outs that look alike come from different tables or passages of the source.

Key:
U87-MU (Glioma cells) = experiment: Short term (72 h) cytotoxicity assay; type: cell-based
A549 (Lung cancer) = experiment: Short term (72 h) cytotoxicity assay; type: cell-based, human; conditions: A549, 72 h cytotoxicity
U251 (Glioma) = experiment: Short term (72 h) cytotoxicity assay; type: cell-based, human; conditions: U251, 72 h cytotoxicity
[1] = system: unmodified MCF-7 human breast cancer cells; experiment: LIF specificity assay, unmodified cells; type: cell-based
[2] = system: LIF-overexpressing MCF-7 (MCF-7 LIF) human breast cancer cells; experiment: LIF specificity assay, LIF-overexpressing cells; type: cell-based
[3] = system: IGROV-1 (Ovarian cancer cells); experiment: Short term (72 h) cytotoxicity assay; type: cell-based; conditions: Homo sapiens; IGROV-1, 72 h cytotoxicity
[4] = system: T47D (ER+ PR+ Breast Cancer); experiment: Short term (72 h) cytotoxicity assay; type: cell-based; conditions: Homo sapiens
[5] = system: human endometrial stromal cells (HESC); experiment: Decidualization assay, actin cytoskeleton by phalloidin staining; type: cell-based; conditions: FIG. 3
Description: Decidualization studies: The above compounds were investigated originally for the treatment of endometriosis. The compounds were tested in a decidualization assay using human endometrial stromal fibroblast (HESC) cells. In preparation for the possibility of embryonic attachment, the stromal cells in the endometrium undergo extensive waves of proliferation, remodeling, and terminal differentiation that transforms the endometrium into an endocrine gland, called decidua. This transformation is called decidualization and it is under the control by ovarian hormones.
The level of apoptosis increases from the proliferative phase through menstrual cycle and peaks at menses. […] However if the cells are subjected to conditions that induce decidualization, stromal cells will begin to differentiate instead of undergoing apoptosis.
Briefly, human stromal endometrial cells were plated in the presence and absence of progesterone and allow undergoing decidualization. The cells treated with test compounds of different concentrations and stained for actin cytocketal morphology using phalloidin staining and monitored under fluorescent microscope.

[6] = system: Ishikawa (Endometrial Cancer); experiment: Short term (72 h) cytotoxicity assay; type: cell-based; conditions: Homo sapiens
[7] = system: MCF-7 (ER+ Breast Cancer); experiment: Short term (72 h) cytotoxicity assay; type: cell-based; conditions: Homo sapiens, MCF7; MCF-7, 72 h cytotoxicity
[8] = system: human umbilical vein endothelial cells (HUVEC); experiment: Matrigel in vitro HUVECs tube formation assay (angiogenesis); type: cell-based; conditions: 1 μM concentration, all measured time points
Description: Matrigel in vitro HUVECs tube formation assay: The tube formation assay was performed using 12-well plate coated with 100 μL Matrigel basement membrane matrix (BD Bioscience) per well and polymerized at 37° C. for 30 min. Human umbilical vascular endothelial cells (HUVECs) suspended in M199 medium containing 2% FBS were plated on the Matrigel at a density of 2×10^5 cells/well. […] After 8 h, the Matrigel-induced morphological changes were photographed and the extent of capillary tube formation was evaluated by measuring the total tube length per field.

MDA-MB-231 (TNBC cells) = experiment: Short term (72 h) cytotoxicity assay; type: cell-based; conditions: Homo sapiens; MDA-MB-231, 72 h cytotoxicity
[9] = system: MDM2 / P53 in MCF-7 cells; experiment: P53 / MDM2 levels in MCF-7 cells (FIG. 5); type: cell-based, human
[10] = system: various cancer cells lines; experiment: Cytotoxicity assays in various cancer cell lines; type: cell-based; conditions: in words
Description: Briefly, 5×10^3 cells were seeded in 96-well plates and incubated with compounds (0.0001-10 μmol/L) or dimethyl sulfoxide (DMSO; 0.02% v/v) for 24, 48, and 72 hours at 37° C. and cell viability was measured using a Fluoroscan plate reader.

T47D breast cancer cells = experiment: Soft agar colony formation assay; type: cell-based, human
Description: Colonies of cancer cells formed in soft agar in the presence and absence of the testing compounds is a standard assay to interpret in-vitro tumorigenic potential in the basal layer. Agar was prepared by mixing 1% DNA grade agar melted and cooled to 40° C. with an equal volume of (2×) Dulbecco's Modified Eagle's Medium (DMEM) to obtain 0.5% agar that was dispersed in a 6-well plate and allowed to solidify. A total of 0.6% agar was prepared in RPMI medium and mixed together with T47D cells (0.5×10^6 cells/mL) and immediately plated on the basal layer in the presence or absence of testing compounds. The cultures were incubated at 37° C. in a CO2 incubator for 2 weeks, and colonies were stained with 0.005% crystal violet and observed under a light microscope.

[11] = system: Patient derived tumor (melanoma): p53, LIF, MDM2, pSTAT3, Ki67; experiment: Immunohistochemistry analysis of patient derived tumor; type: cell-based, human; conditions: 10 nM and 1 uM for 5 days, FIG. 10
Description: Patient derived tumor (melanoma) was treated with the compounds at 10 nM and 1 uM for 5 days in RPMI medium and harvested on day 6 using established protocol and immunohistochemistry was performed for different antibodies including p53, LIF, MDM2, pSTAT3, Ki67.

[12] = system: PC3 (AR− Prostate Cancer); experiment: Short term (72 h) cytotoxicity assay; type: cell-based; conditions: Homo sapiens, PC3, 72 h cytotoxicity
LNCaP (AR+ Prostate) = experiment: Short term (72 h) cytotoxicity assay; type: cell-based
[13] = Homo sapiens, MCF7, cytotoxicity
[14] = Homo sapiens, MCF7, cytotoxicity, LIF-overexpressing MCF-7, read-out: MCF-7 LIF IC50

Row | Compound | IC50 (U87-MU (Glioma cells); Glioma cell) | IC50 (U251 (Glioma); Homo sapiens, U-251) | IC50 [1, 13] | IC50 [2, 14] | IC50 [3] | IC50 (MDA-MB-231 (TNBC cells)) | further results
1 | C#CC(F)(F)[C@]1(O)CCC2C3CCC4=CC(=O)CCC4=C3C(c3ccc(C(C)(C)C)cc3)C[C@@]21C (stereo partly drawn) [EC357, 17α-(1,1-difluoro-2-propyn-1-yl)-17β-hydroxy-11β-[4-p-(t-butyl)phenyl]estra-4,9-dien-3-one] | 35 nM | 30 nM |  |  |  |  | melting point: 127 to 129 °C; IC50 (A549 (Lung cancer); Homo sapiens): 35 nM
2 | C#CC(F)(F)[C@]1(O)CCC2C3CCC4=CC(=O)CCC4=C3C(c3ccc(CCCCCCC)cc3)C[C@@]21C (stereo partly drawn) [EC362, 17α-(1,1-difluoro-2-propyn-1-yl)-17β-hydroxy-11β-[4-p-(n-heptyl)phenyl]estra-4,9-dien-3-one] |  |  | 50 nM | 25 nM | 7.5 nM |  | IC50 [4]: 25 nM
3 | C#CC(F)(F)[C@]1(O)CCC2C3CCC4=CC(=O)CCC4=C3C(c3ccc(C(C)=O)cc3)C[C@@]21C (stereo partly drawn) [EC332, 17α-(1,1-difluoro-2-propyn-1-yl)-17β-hydroxy-11β-[4-p-(acetyl)phenyl]estra-4,9-dien-3-one] | 90 nM | 40 nM |  |  |  | 110 nM | actin / alpha-smooth muscle mediated cytoskeletal disruption of fibroblast [5]: cytoskeletal disruption; IC50 [6]: 10 nM; IC50 [7]: 45 nM; tube formation [8]: complete abrogation; IC50 [4]: 200 nM; IC50 (A549 (Lung cancer); Homo sapiens): 75 nM; P53 levels / MDM2 [9]: restore P53 levels by inhibiting MDM2; IC50's in cytotoxicity assays [10]: low nanomolar; inhibition in the number of colonies formed (T47D breast cancer cells; 100 nM concentration, in words): complete inhibition; inhibition at 0.005 µM (T47D breast cancer cells; Homo sapiens, T47D, 5 nM concentration, read-out: inhibition in the number of colonies formed): 50%; apoptosis, p53, MDM2, LIF mediated STAT3 phosphorylation (immunohistochemistry) [11]: induce apoptosis and restore p53 by inhibiting MDM2 and LIF mediated STAT3 phosphorylation; IC50 [12]: 300 nM; IC50 (LNCaP (AR+ Prostate)): 96 nM
4 | C#CC(F)(F)[C@]1(O)CCC2C3CCC4=CC(=O)CCC4=C3C(c3ccc(N(C)C)cc3)C[C@@]21C (stereo partly drawn) [EC352, 17α-(1,1-difluoro-2-propyn-1-yl)-17β-hydroxy-11β-[4-p-(dimethylamino)phenyl]estra-4,9-dien-3-one] |  |  |  |  |  |  | IC50 ([1]; cytotoxicity): > 10000 nM; Fold Change ([2]; MCF-7 vs. MCF-7 LIF cytotoxicity (specificity towards LIF)): 0; IC50 ([2]; cytotoxicity, LIF-overexpressing MCF-7, read-out: MCF-7 LIF IC50): > 10000 nM; IC50 (U87-MU (Glioma cells)): 50 nM; IC50 (A549 (Lung cancer)): 45 nM; IC50 (U251 (Glioma)): 40 nM
5 | C#CC(F)(F)[C@]1(O)CCC2C3CCC4=CC(=O)CCC4=C3C(c3ccc(S(=O)(=O)C4CC4)cc3)C[C@@]21C (stereo partly drawn) [EC361, 17α-(1,1-difluoro-2-propyn-1-yl)-17β-hydroxy-11β-[4-p-(cyclopropylsulfonyl)phenyl]estra-4,9-dien-3-one] | 230 nM |  | > 10000 nM | 500 nM | 350 nM | 750 nM | 
6 | C#CC(F)(F)[C@]1(O)CCC2C3CCC4=CC(=O)CCC4=C3C(c3ccc(-n4ccnc4)cc3)C[C@@]21C (some centres unmarked) [EC351] |  | 500 nM |  |  |  |  | melting point: 175 to 178 °C
7 | C#CC(F)(F)[C@]1(O)CCC2C3CCC4=CC(=O)CCC4=C3C(c3ccc(C4CCCCC4)cc3)C[C@@]21C (stereo partly drawn) [EC360, 17α-(1,1-difluoro-2-propyn-1-yl)-17β-hydroxy-11β-[4-p-(cyclohexyl)phenyl]estra-4,9-dien-3-one] | 73 nM |  | 500 nM | 250 nM | 22 nM | 40 nM | 
8 | C#CC(F)(F)[C@]1(O)CC[C@H]2[C@@H]3CCC4=CC(=O)CCC4=C3[C@@H](c3ccc(-c4c(C)cc(C)cc4C)cc3)C[C@@]21C [EC359, 17α-(1,1-difluoro-2-propyn-1-yl)-17β-hydroxy-11β-[4-p-(2,4,6-trimethylphenyl)phenyl]estra-4,9-dien-3-one] | 10 nM |  | 240 nM |  | 25 nM | 30 nM | IC50 ([2]; Homo sapiens, MCF7, read-out: MCF-7 LIF IC50): 30 nM
9 | C#CC(F)(F)[C@]1(O)CCC2C3CCC4=CC(=O)CCC4=C3C(c3ccc(SC)cc3)C[C@@]21C (stereo partly drawn) [EC363, 17α-(1,1-difluoro-2-propyn-1-yl)-17β-hydroxy-11β-[4-p-(methylthio)phenyl]estra-4,9-dien-3-one] | 30 nM |  |  |  | 30 nM |  | 
10 | C#CC(F)(F)[C@]1(O)CCC2C3CCC4=CC(=O)CCC4=C3C(c3ccc(OC)cc3)C[C@@]21C (stereo partly drawn) [EC356, 17α-(1,1-difluoro-2-propyn-1-yl)-17β-hydroxy-11β-[4-p-(methoxy)phenyl]estra-4,9-dien-3-one] | 45 nM | 45 nM | 500 nM | 250 nM |  |  | IC50 (A549 (Lung cancer); Homo sapiens): 40 nM
11 | C#CC(F)(F)[C@]1(O)CCC2C3CCC4=CC(=O)CCC4=C3C(c3ccc(C(=C)C)cc3)C[C@@]21C (stereo partly drawn) [EC358, 17α-(1,1-difluoro-2-propyn-1-yl)-17β-hydroxy-11β-[4-p-(1-methylethenyl)phenyl]estra-4,9-dien-3-one] | 25 nM |  | 100 nM | 50 nM | 35 nM | 40 nM | 
